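Values below derive from 48-hour exposures of cells grown in 96-well plates, with endpoints linearly interpolated between the two concentrations bracketing the appropriate inhibition level. Here, GI50 denotes the concentration required for 50% inhibition of growth.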 The source made the active and inactive calls. Cut-off read from the data, not from the text of the source: active = GI50 up to about 1.1 µM and inactive = higher.
What was measured:
Assay in all cases: NCI anticancer screen, dose series, 48 h
786-0 = test system: 786-0
A498 = test system: A498
A549 = test system: A549
ACHN = test system: ACHN
BT-549 = test system: BT-549
CAKI-1 = test system: CAKI-1
CCRF-CEM = test system: CCRF-CEM
COLO 205 = test system: COLO 205
DU-145 = test system: DU-145
EKVX = test system: EKVX
HCC 2998 = test system: HCC 2998
HCT-116 = test system: HCT-116
HCT-15 = test system: HCT-15
HL-60 = test system: HL-60
HOP-62 = test system: HOP-62
HOP-92 = test system: HOP-92
HT-29 = test system: HT-29
Hs-578T = test system: Hs-578T
IGROV-1 = test system: IGROV-1
K562 = test system: K562
KM12 = test system: KM12
LOX IMVI = test system: LOX IMVI
MCF7 = test system: MCF7
MDA-MB-231 = test system: MDA-MB-231
MDA-MB-435 = test system: MDA-MB-435
MDA-N = test system: MDA-N
MOLT-4 = test system: MOLT-4
Malme-3M = test system: Malme-3M
NCI-H226 = test system: NCI-H226
NCI-H23 = test system: NCI-H23
NCI-H460 = test system: NCI-H460
NCI-H522 = test system: NCI-H522
NCI/ADR-RES = test system: NCI/ADR-RES
OVCAR-3 = test system: OVCAR-3
OVCAR-4 = test system: OVCAR-4
OVCAR-5 = test system: OVCAR-5
OVCAR-8 = test system: OVCAR-8
PC-3 = test system: PC-3
RPMI-8226 = test system: RPMI-8226
RXF 393 = test system: RXF 393
SF-268 = test system: SF-268
SF-295 = test system: SF-295
SF-539 = test system: SF-539
SK-MEL-28 = test system: SK-MEL-28
SK-MEL-5 = test system: SK-MEL-5
SK-OV-3 = test system: SK-OV-3
SN12C = test system: SN12C
SNB-75 = test system: SNB-75
SR = test system: SR
SW-620 = test system: SW-620
T47D = test system: T47D
TK-10 = test system: TK-10
U-251 = test system: U-251
UACC-257 = test system: UACC-257
UACC-62 = test system: UACC-62
UO-31 = test system: UO-31
M14 = test system: M14
SK-MEL-2 = test system: SK-MEL-2
SNB-19 = test system: SNB-19

COC(=O)c1c2c(cc3c1CC1(Cc4ccccc4C1)C3)CCC2
GI50 (786-0): 27.9 µM (inactive)
GI50 (A498): 25.9 µM (inactive)
GI50 (A549): 28.7 µM (inactive)
GI50 (ACHN): 23.8 µM (inactive)
GI50 (BT-549): 20.9 µM (inactive)
GI50 (CAKI-1): 19.8 µM (inactive)
GI50 (CCRF-CEM): 17.2 µM (inactive)
GI50 (COLO 205): 16.6 µM (inactive)
GI50 (DU-145): 47.4 µM (inactive)
GI50 (EKVX): 25.6 µM (inactive)
GI50 (HCC 2998): 33.1 µM (inactive)
GI50 (HCT-116): 21.7 µM (inactive)
GI50 (HCT-15): 23 µM
GI50 (HL-60): 17.3 µM (inactive)
GI50 (HOP-62): 28.2 µM (inactive)
GI50 (HOP-92): 36.9 µM (inactive)
GI50 (HT-29): 13.8 µM (inactive)
GI50 (Hs-578T): 22.9 µM (inactive)
GI50 (IGROV-1): 22.5 µM (inactive)
GI50 (K562): 4.32 µM (inactive)
GI50 (KM12): 13 µM (inactive)
GI50 (LOX IMVI): 15.9 µM (inactive)
GI50 (MCF7): 6.38 µM (inactive)
GI50 (MDA-MB-231): 14.8 µM (inactive)
GI50 (MDA-MB-435): 8.91 µM (inactive)
GI50 (MDA-N): 6.27 µM (inactive)
GI50 (MOLT-4): 17.1 µM (inactive)
GI50 (Malme-3M): 20.2 µM (inactive)
GI50 (NCI-H226): 31.7 µM (inactive)
GI50 (NCI-H23): 31.3 µM (inactive)
GI50 (NCI-H460): 30.5 µM (inactive)
GI50 (NCI-H522): 14 µM (inactive)
GI50 (NCI/ADR-RES): 22.2 µM (inactive)
GI50 (OVCAR-3): 18.9 µM (inactive)
GI50 (OVCAR-4): 37.8 µM (inactive)
GI50 (OVCAR-5): 25.2 µM (inactive)
GI50 (OVCAR-8): 35.2 µM (inactive)
GI50 (PC-3): 13.8 µM (inactive)
GI50 (RPMI-8226): 17.9 µM (inactive)
GI50 (RXF 393): 16.9 µM (inactive)
GI50 (SF-268): 36.6 µM (inactive)
GI50 (SF-295): 24.5 µM (inactive)
GI50 (SF-539): 39.5 µM (inactive)
GI50 (SK-MEL-28): 24.2 µM (inactive)
GI50 (SK-MEL-5): 13.5 µM (inactive)
GI50 (SK-OV-3): 31.4 µM (inactive)
GI50 (SN12C): 16.9 µM (inactive)
GI50 (SNB-75): 26.2 µM (inactive)
GI50 (SR): 16.5 µM (inactive)
GI50 (SW-620): 14.2 µM (inactive)
GI50 (T47D): 15.8 µM (inactive)
GI50 (TK-10): 61.8 µM (inactive)
GI50 (U-251): 20.9 µM (inactive)
GI50 (UACC-257): 17.6 µM (inactive)
GI50 (UACC-62): 20.9 µM (inactive)
GI50 (UO-31): 13 µM (inactive)

Cc1ccccc1S(=O)(=O)OC1NS(=O)(=O)c2ccccc21 (centres undefined)
GI50 (786-0): > 100 µM (inactive)
GI50 (A498): > 100 µM (inactive)
GI50 (A549): > 100 µM (inactive)
GI50 (ACHN): > 100 µM (inactive)
GI50 (BT-549): > 100 µM (inactive)
GI50 (CAKI-1): > 100 µM (inactive)
GI50 (COLO 205): > 100 µM (inactive)
GI50 (DU-145): > 100 µM (inactive)
GI50 (EKVX): > 100 µM (inactive)
GI50 (HCC 2998): > 100 µM (inactive)
GI50 (HCT-116): > 100 µM (inactive)
GI50 (HCT-15): > 100 µM
GI50 (HOP-62): > 100 µM (inactive)
GI50 (HOP-92): > 100 µM (inactive)
GI50 (HT-29): > 100 µM (inactive)
GI50 (Hs-578T): > 100 µM (inactive)
GI50 (IGROV-1): > 100 µM (inactive)
GI50 (K562): > 100 µM (inactive)
GI50 (KM12): > 100 µM (inactive)
GI50 (LOX IMVI): > 100 µM (inactive)
GI50 (M14): > 100 µM (inactive)
GI50 (MCF7): > 100 µM (inactive)
GI50 (MDA-MB-231): > 100 µM (inactive)
GI50 (MDA-MB-435): > 100 µM (inactive)
GI50 (MDA-N): > 100 µM (inactive)
GI50 (MOLT-4): > 100 µM (inactive)
GI50 (Malme-3M): > 100 µM (inactive)
GI50 (NCI-H23): > 100 µM (inactive)
GI50 (NCI-H460): > 100 µM (inactive)
GI50 (NCI-H522): > 100 µM (inactive)
GI50 (NCI/ADR-RES): > 100 µM (inactive)
GI50 (OVCAR-3): > 100 µM (inactive)
GI50 (OVCAR-4): > 100 µM (inactive)
GI50 (OVCAR-5): > 100 µM (inactive)
GI50 (OVCAR-8): > 100 µM (inactive)
GI50 (PC-3): > 100 µM (inactive)
GI50 (RPMI-8226): > 100 µM (inactive)
GI50 (RXF 393): > 100 µM (inactive)
GI50 (SF-268): > 100 µM (inactive)
GI50 (SF-295): > 100 µM (inactive)
GI50 (SF-539): > 100 µM (inactive)
GI50 (SK-MEL-28): > 100 µM (inactive)
GI50 (SK-MEL-2): > 100 µM (inactive)
GI50 (SK-MEL-5): > 100 µM (inactive)
GI50 (SK-OV-3): > 100 µM (inactive)
GI50 (SN12C): > 100 µM (inactive)
GI50 (SNB-19): > 100 µM (inactive)
GI50 (SNB-75): > 100 µM (inactive)
GI50 (SR): > 100 µM (inactive)
GI50 (SW-620): > 100 µM (inactive)
GI50 (T47D): > 100 µM (inactive)
GI50 (TK-10): > 100 µM (inactive)
GI50 (U-251): > 100 µM (inactive)
GI50 (UACC-257): > 100 µM (inactive)
GI50 (UACC-62): > 100 µM (inactive)
GI50 (UO-31): > 100 µM (inactive)

O=C1c2ccccc2NC(c2cc(Cl)cc(Cl)c2O)N1CCc1ccccn1 (centres undefined)
GI50 (786-0): 60.1 µM (inactive)
GI50 (A498): > 100 µM (inactive)
GI50 (A549): 48.6 µM (inactive)
GI50 (ACHN): 87.3 µM (inactive)
GI50 (BT-549): > 100 µM (inactive)
GI50 (CAKI-1): > 100 µM (inactive)
GI50 (COLO 205): > 100 µM (inactive)
GI50 (DU-145): 46.7 µM (inactive)
GI50 (EKVX): 62.5 µM (inactive)
GI50 (HCC 2998): 53.2 µM (inactive)
GI50 (HCT-116): 67 µM (inactive)
GI50 (HCT-15): 86.3 µM
GI50 (HL-60): > 100 µM (inactive)
GI50 (HOP-62): > 100 µM (inactive)
GI50 (HOP-92): 52.7 µM (inactive)
GI50 (HT-29): 80.9 µM (inactive)
GI50 (Hs-578T): 55.8 µM (inactive)
GI50 (IGROV-1): > 100 µM (inactive)
GI50 (K562): > 100 µM (inactive)
GI50 (KM12): 64 µM (inactive)
GI50 (LOX IMVI): > 100 µM (inactive)
GI50 (M14): 64.4 µM (inactive)
GI50 (MCF7): 61 µM (inactive)
GI50 (MDA-MB-231): > 100 µM (inactive)
GI50 (MDA-MB-435): 68.1 µM (inactive)
GI50 (MDA-N): 97.9 µM (inactive)
GI50 (Malme-3M): 30.8 µM (inactive)
GI50 (NCI-H226): > 100 µM (inactive)
GI50 (NCI-H23): > 100 µM (inactive)
GI50 (NCI-H460): 56.2 µM (inactive)
GI50 (NCI-H522): 41.9 µM (inactive)
GI50 (NCI/ADR-RES): 60.4 µM (inactive)
GI50 (OVCAR-3): > 100 µM (inactive)
GI50 (OVCAR-4): 36.8 µM (inactive)
GI50 (OVCAR-5): > 100 µM (inactive)
GI50 (OVCAR-8): 80.2 µM (inactive)
GI50 (PC-3): 24 µM (inactive)
GI50 (RPMI-8226): 34.8 µM (inactive)
GI50 (RXF 393): 44.7 µM (inactive)
GI50 (SF-268): > 100 µM (inactive)
GI50 (SF-295): > 100 µM (inactive)
GI50 (SF-539): > 100 µM (inactive)
GI50 (SK-MEL-28): > 100 µM (inactive)
GI50 (SK-MEL-2): > 100 µM (inactive)
GI50 (SK-MEL-5): > 100 µM (inactive)
GI50 (SK-OV-3): > 100 µM (inactive)
GI50 (SN12C): 69.8 µM (inactive)
GI50 (SNB-19): 88.9 µM (inactive)
GI50 (SNB-75): 42.6 µM (inactive)
GI50 (SR): 47.5 µM (inactive)
GI50 (SW-620): 76.7 µM (inactive)
GI50 (T47D): 26.7 µM (inactive)
GI50 (TK-10): > 100 µM (inactive)
GI50 (U-251): 39.8 µM (inactive)
GI50 (UACC-257): 97.9 µM (inactive)
GI50 (UACC-62): > 100 µM (inactive)
GI50 (UO-31): > 100 µM (inactive)
